pIC50: −log10 of the molar value.

The target in one series is T1, CSBP2 (Homo sapiens, UniProt Q16539).
T1 construct: made in house; host or cells: yeast
The series is described as follows: CSBP Kinase Assay. In kind it is biochemical. The note with it: yeast-expressed purified CSBP2; 170 uM ATP (Km); T669 peptide substrate; 30° C. for 10 min. How it is done:
This assay measures the CSBP-catalyzed transfer of ^32P from [a-^32P]ATP to threonine residue in an epidermal growth factor receptor (EGFR)-derived peptide (T669) with the following sequence: […] (residues 661-681). (See Gallagher et al., “Regulation of Stress Induced Cytokine Production by Pyridinyl Imidazoles: Inhibition of CSPB Kinase”, BioOrganic & Medicinal Chemistry, to be published 1996).
Kinase reactions (total volume 30 ul) contain: 25 mM Hepes buffer, pH 7.5; 10 mM MgCl2; 170 uM ATP^(1); 10 uM Na ortho vanadate; 0.4 mM T669 peptide; and 20-80 ng of yeast-expressed purified CSBP2 (see Lee et al., Nature 300, n(72), 739-746 (December 1994)). Compounds (5 ul from [6×] stock^(2)) are pre-incubated with the enzyme and peptide for 20 min on ice prior to starting the reactions with 32P/MgATP. Reactions are incubated at 30° C. for 10 min and stopped by adding 10 ul of 0.3 M phosphoric acid. 32P-labeled peptide is separated on phosphocellulose (Wattman, p81) filters by spotting 30 ul reaction mixture. Filters are washed 3 times with 75 mM phosphoric acid followed by 2 washes with H2O, and counted for 32P.
(1) The Km of CSBP for ATP was determined to be 170 uM. Therefore, compounds screened at the Km value of ATP.
(2) Compounds are usually dissolved in DMSO and are diluted in 25 mM Hepes buffer to get final concentration of DMSO of 0.17%.

T1 sequence (Q16539 whole entry): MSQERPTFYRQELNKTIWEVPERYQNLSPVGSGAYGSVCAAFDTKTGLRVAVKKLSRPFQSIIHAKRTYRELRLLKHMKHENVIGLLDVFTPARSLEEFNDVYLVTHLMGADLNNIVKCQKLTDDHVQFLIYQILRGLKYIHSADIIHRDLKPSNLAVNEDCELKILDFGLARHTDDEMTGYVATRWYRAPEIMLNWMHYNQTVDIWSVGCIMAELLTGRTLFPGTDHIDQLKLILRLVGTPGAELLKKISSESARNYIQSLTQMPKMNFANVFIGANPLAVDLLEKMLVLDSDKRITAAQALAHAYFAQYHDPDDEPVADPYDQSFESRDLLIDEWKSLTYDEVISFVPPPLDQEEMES

By pIC50 is commonly meant −log10 of the IC50, conventionally taken in molar units. Higher therefore signals a small IC50. In general, melting point refers to the temperature of the solid-liquid transition. Turning to `Nc1nccc(C2=C(c3ccc(F)cc3)CCC2)n1` [Example 1, 1-[4-(2-Aminopyrimidinyl)]-2-(4-fluorophenyl)cyclopenten-1-ene], the melting point was 134 to 135 °C. The compound further showed a pIC50 at CSBP2 above 4.30.
